Data published in publication PMC12622164, “Endothelial CYB5R1 is a Coenzyme Q reductase that suppresses ferroptosis and atherosclerosis” (Research Square, 2025).

Biological target: T1, recombinant CYB5R1 (Δ1–29) (Homo sapiens, UniProt Q9UHQ9)
T1 construct: soluble form lacking first 29 residues (membrane anchor); His6-SUMO (Smt3) fusion cleaved by Ulp1; E. coli SoluBL21
T1 sequence (Q9UHQ9 30-305): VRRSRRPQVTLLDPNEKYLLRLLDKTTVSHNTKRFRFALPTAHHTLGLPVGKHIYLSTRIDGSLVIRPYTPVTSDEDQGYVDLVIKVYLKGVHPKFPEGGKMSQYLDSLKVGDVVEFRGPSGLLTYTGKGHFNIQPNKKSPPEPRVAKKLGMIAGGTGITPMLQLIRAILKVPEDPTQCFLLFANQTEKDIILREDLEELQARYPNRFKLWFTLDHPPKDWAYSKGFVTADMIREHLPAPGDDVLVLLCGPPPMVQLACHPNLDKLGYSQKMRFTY
Test: NADH consumption at […] nm
Assay type: biochemical
Details: 200 uM CoQ0; 500 uM NADH; 100 mM Tris-HCl pH 7.4; no CYB5B

For `COC1=C(OC)C(=O)C(C)=CC1=O` [CoQ0, 2,3-dimethoxy-5-methyl-1,4-benzoquinone], the “NADH consumption at 340 nm” value was “recombinant CYB5R1 readily reduced CoQ0, a water-soluble derivative of CoQ10”.
